Source: the NIST ThermoML archive (doi:10.1016/j.jct.2012.03.029)

Assay: mn = molality of the nth substance listed, in mol/kg
Details: 101 kPa, Liquid, m1 = 0.01; for speed of sound: Sing-around technique in a fixed-path interferometer; for mass density: Vibrating tube method

OC[C@H]1O[C@@H]2O[C@H]3[C@H](O)[C@@H](O)[C@@H](O[C@H]4[C@H](O)[C@@H](O)[C@@H](O[C@H]5[C@H](O)[C@@H](O)[C@@H](O[C@H]6[C@H](O)[C@@H](O)[C@@H](O[C@H]7[C@H](O)[C@@H](O)[C@@H](O[C@H]8[C@H](O)[C@@H](O)[C@@H](O[C@H]1[C@H](O)[C@H]2O)O[C@@H]8CO)O[C@@H]7CO)O[C@@H]6CO)O[C@@H]5CO)O[C@@H]4CO)O[C@@H]3CO [β-cyclodextrin] + O
Details | mass density [kg/m3] | speed of sound [m/s]
293.15 K | 1001.93 | 1484.4
298.15 K | 1000.75 | 1498.5
303.15 K | 999.217 | 1510.9
308.15 K | 997.709 | 1521.5
